From PubChem BioAssay AID330 (DTP/NCI, 2004)
Several values for one entry are separate records, joined by “and”; a condition that tells them apart may be missing. Equal entries are not always repeated. Inconclusive results and toxic doses are left out.

Test system: P388 leukemia ip, CD2F1 mice, survival T/C
Experiment: NCI In Vivo Anticancer Drug Screen. Data for tumor model P388 Leukemia (intraperitoneal) in CD2F1 (CDF1) mice
Details: endpoint: median survival time, higher = longer survival
How it was run: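 Mice carrying the transplanted tumor received test compound or vehicle. Survival was recorded in each group, and the value is the treated-group measurement divided by that of the vehicle-treated control group.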

[1] = dose: 50.0 mg/kg/injection, schedule: Q01DX005 (ip), vehicle: saline with Tween-80
[2] = dose: 100.0 mg/kg/injection, schedule: Q01DX005 (ip), vehicle: saline with Tween-80
[3] = dose: 200.0 mg/kg/injection, schedule: Q01DX005 (ip), vehicle: saline with Tween-80
[4] = dose: 60.0 mg/kg/injection, schedule: Q01DX005 (ip), vehicle: saline with Tween-80
[5] = dose: 120.0 mg/kg/injection, schedule: Q01DX005 (ip), vehicle: saline with Tween-80
[6] = dose: 240.0 mg/kg/injection, schedule: Q01DX005 (ip), vehicle: saline with Tween-80

[Cl][Sn]1([Cl])[CH2]CC[CH2][Sn]([Cl])([Cl])[CH2]CC[CH2]1
T/C (dose: 25.0 mg/kg/injection, schedule: Q01DX001 (ip), vehicle: saline): 107 % of control
T/C (dose: 50.0 mg/kg/injection, schedule: Q01DX001 (ip), vehicle: saline): 107 % of control
T/C (dose: 100.0 mg/kg/injection, schedule: Q01DX001 (ip), vehicle: saline): 120 % of control
T/C (dose: 100.0 mg/kg/injection, schedule: Q04DX002 (ip), vehicle: saline): 109 % of control

NC(=S)N/N=C\C(CC(O)C(O)CO)=N\NC(N)=S (stereo not drawn)
T/C [1]: 89 % of control
T/C [2]: 95 % of control
T/C [3]: 98 % of control

C=CCN(CC=C)C(CC(=O)C(C)(C)C)=NCC
T/C (dose: 12.5 mg/kg/injection, schedule: Q01DX009 (ip), vehicle: saline): 104 % of control
T/C (dose: 25.0 mg/kg/injection, schedule: Q01DX009 (ip), vehicle: saline): 106 % of control
T/C (dose: 50.0 mg/kg/injection, schedule: Q01DX009 (ip), vehicle: saline): 100 % of control and 101 % of control

COc1ccc2c(=O)cc(-c3ccc4ccccc4n3)oc2c1OC
T/C (dose: 50.0 mg/kg/injection, schedule: Q01DX005 (ip), vehicle: Klucel (hydroxypropylcellulose) (HPC)): 98 % of control
T/C (dose: 100.0 mg/kg/injection, schedule: Q01DX005 (ip), vehicle: Klucel (hydroxypropylcellulose) (HPC)): 95 % of control
T/C (dose: 200.0 mg/kg/injection, schedule: Q01DX005 (ip), vehicle: Klucel (hydroxypropylcellulose) (HPC)): 90 % of control

COC(=O)Nc1nc2ccc(-c3c(C)oc(C)c3C(=O)O)cc2[nH]1
T/C [1]: 97 % of control
T/C [2]: 97 % of control
T/C [3]: 87 % of control

CCO/C=C1/N=C(c2ccc(Cl)c([N+](=O)[O-])c2)OC1=O
T/C [4]: 108 % of control
T/C [5]: 106 % of control
T/C [6]: 107 % of control

C1=C(c2ccccc2)[P+](c2ccccc2)(c2ccccc2)C=C(c2ccccc2)[P+]1(c1ccccc1)c1ccccc1
T/C (dose: 16.5 mg/kg/injection, schedule: Q04DX003 (ip), vehicle: saline): 109 % of control
T/C (dose: 25.0 mg/kg/injection, schedule: Q04DX003 (ip), vehicle: saline): 109 % of control
T/C (dose: 37.5 mg/kg/injection, schedule: Q04DX003 (ip), vehicle: saline): 109 % of control

CC(C)C(NC(=O)C1CCCN1)P(=O)(O)O (stereo not drawn)
T/C (dose: 60.0 mg/kg/injection, schedule: Q01DX005 (ip), vehicle: saline): 101 % of control
T/C (dose: 120.0 mg/kg/injection, schedule: Q01DX005 (ip), vehicle: saline): 104 % of control
T/C (dose: 240.0 mg/kg/injection, schedule: Q01DX005 (ip), vehicle: saline): 104 % of control

CCOCC(=O)C1(O)Cc2c(O)c3c(c(O)c2C(O)C1)C(=O)c1c(OC)cccc1C3=O (stereo not drawn)
T/C (dose: 1.56 mg/kg/injection, schedule: Q01DX009 (ip), vehicle: other): 101 % of control
T/C (dose: 3.13 mg/kg/injection, schedule: Q01DX009 (ip), vehicle: other): 100 % of control
T/C (dose: 6.25 mg/kg/injection, schedule: Q01DX009 (ip), vehicle: other): 100 % of control
T/C (dose: 12.5 mg/kg/injection, schedule: Q01DX009 (ip), vehicle: other): 95 % of control
T/C (dose: 25.0 mg/kg/injection, schedule: Q01DX009 (ip), vehicle: other): 103 % of control

COC(=O)c1c(-c2ccc(OC)c(OC)c2)c(C=O)n(C)c1C
T/C (dose: 100.0 mg/kg/injection, schedule: Q04DX002 (ip), vehicle: saline with Tween-80): 99 % of control
T/C (dose: 200.0 mg/kg/injection, schedule: Q04DX002 (ip), vehicle: saline with Tween-80): 91 % of control
T/C (dose: 400.0 mg/kg/injection, schedule: Q04DX002 (ip), vehicle: saline with Tween-80): 90 % of control

COCC(CC(=O)O)C(C(=O)O)C(=O)O (stereo not drawn)
T/C (dose: 12.5 mg/kg/injection, schedule: Q01DX009 (ip), vehicle: water): 100 % of control
T/C (dose: 25.0 mg/kg/injection, schedule: Q01DX009 (ip), vehicle: water): 106 % of control
T/C (dose: 50.0 mg/kg/injection, schedule: Q01DX009 (ip), vehicle: water): 106 % of control
T/C (dose: 100.0 mg/kg/injection, schedule: Q01DX009 (ip), vehicle: water): 93 % of control
T/C (dose: 200.0 mg/kg/injection, schedule: Q01DX009 (ip), vehicle: water): 92 % of control

O=S(=O)(O)CC[S][Sn]([S]CCS(=O)(=O)O)([c]1ccccc1)[c]1ccccc1 (tested in a mixture with another compound)
T/C (dose: 1.87 mg/kg/injection, schedule: Q01DX005 (ip), vehicle: Klucel (hydroxypropylcellulose) (HPC)): 121 % of control
T/C (dose: 3.75 mg/kg/injection, schedule: Q01DX005 (ip), vehicle: Klucel (hydroxypropylcellulose) (HPC)): 152 % of control

Nc1c(Br)cc(Br)c2c1[nH]c(=O)c1ccccc12
T/C [4]: 96 % of control
T/C [5]: 90 % of control
T/C [6]: 107 % of control
